The values below are quoted from earlier work in patent US7119079B2, “Bioadhesive pharmaceutical compositions” (priority 2003, dated 2006).

Each structure is given as a SMILES string.

Data set [1] deals with Mycobacterium tuberculosis.
Data set [2] relates to distal ulcerative colitis. As to conditions: compared with hydrocortisone and mesalamine enemas.
Data set [3] deals with distal ulcerative colitis. The note with it: enemas, patients with distal ulcerative colitis; fraction of patients.

On to `Nc1ccc(C(=O)O)c(O)c1` [Compound 4-ASA, 4-amino salicylic acid], for which, in data set [1], the “activity against Mycobacterium tuberculosis” value was “bacteriostatic”. For the same compound, in data set [2], the “effectiveness of enemas in distal ulcerative colitis” value is “as effective as hydrocortisone enemas and as effective as mesalamine enemas”.
Regarding `Nc1ccc(O)c(C(=O)O)c1` [mesalamine, 5-amino salicylic acid], the patients showing improvement result in data set [3] is given as “Three quarters”.
Consider `Nc1ccc(S(=O)(=O)Nc2ccccn2)cc1` [sulfapyridine], for which the patients showing improvement result in data set [3] is “about one third”.
In the case of `O=C(O)c1cc(/N=N/c2ccc(S(=O)(=O)Nc3ccccn3)cc2)ccc1O` [sulfasalazine, salicyl-azo-sulfapyridine], the patients showing improvement result in data set [3] is “Three quarters”.
